Experimental data: BigSolDB 2.1

CCCCCCCCCCCCCCCCCCCC(=O)OCCO
Details | solubility (mole fraction)
in 1,1,1-trichloroethane, 296.75 K | 0.0241
in 1,1,1-trichloroethane, 299.75 K | 0.0469
in 1,1,1-trichloroethane, 303.75 K | 0.0762
in 1,1,1-trichloroethane, 309.55 K | 0.142
in MIBK, 294.65 K | 0.0026
in MIBK, 298.05 K | 0.0049
in MIBK, 299.25 K | 0.008
in MIBK, 302.65 K | 0.0176
in MIBK, 307.55 K | 0.0486
in MIBK, 311.75 K | 0.173
in cyclohexane, 296.35 K | 0.003
in cyclohexane, 298.75 K | 0.0044
in cyclohexane, 301.55 K | 0.008
in cyclohexane, 303.25 K | 0.0189
in cyclohexane, 305.65 K | 0.0367
in cyclohexane, 307.25 K | 0.069
in cyclohexane, 310.55 K | 0.122
in ethanol, 311.25 K | 0.0006
in ethanol, 314.65 K | 0.0012
in ethanol, 319.15 K | 0.002
in ethanol, 322.15 K | 0.005
in ethanol, 324.15 K | 0.0139
in isopropanol, 302.85 K | 0.0002
in isopropanol, 304.05 K | 0.0005
in isopropanol, 306.35 K | 0.0008
in isopropanol, 309.85 K | 0.001
in isopropanol, 310.65 K | 0.0017
in isopropanol, 310.95 K | 0.0026
in isopropanol, 313.15 K | 0.0028
in isopropanol, 316.15 K | 0.0062
in isopropanol, 318.15 K | 0.0134
in isopropanol, 319.85 K | 0.082
in isopropanol, 319.95 K | 0.193
in n-butanol, 303.75 K | 0.0006
in n-butanol, 303.95 K | 0.001
in n-butanol, 306.55 K | 0.0018
in n-butanol, 306.75 K | 0.0019
in n-butanol, 307.95 K | 0.0027
in n-butanol, 308.85 K | 0.0039
in n-butanol, 310.85 K | 0.0059
in n-butanol, 313.75 K | 0.0122
in n-butanol, 315.75 K | 0.0201
in n-butanol, 317.35 K | 0.0783
in n-butanol, 317.45 K | 0.151
in n-butyl acetate, 294.75 K | 0.0036
in n-butyl acetate, 296.55 K | 0.0065
in n-butyl acetate, 297.45 K | 0.009
in n-butyl acetate, 299.85 K | 0.0127
in n-butyl acetate, 301.05 K | 0.0184
in n-butyl acetate, 303.45 K | 0.0288
in n-butyl acetate, 307.35 K | 0.0655
in n-butyl acetate, 312.35 K | 0.147
in n-butyl acetate, 312.85 K | 0.172
in n-butyl acetate, 313.35 K | 0.185
in trichloroethylene, 297 K | 0.0428
in trichloroethylene, 299.25 K | 0.0575
in trichloroethylene, 304.25 K | 0.104
in trichloroethylene, 307.7 K | 0.15
in trichloroethylene, 311.3 K | 0.216

CCCCCCCCCCCCCCCCCCCCCC(=O)OCCO
Details | solubility (mole fraction)
in 1,1,1-trichloroethane, 287.55 K | 0.0101
in 1,1,1-trichloroethane, 290.15 K | 0.0146
in 1,1,1-trichloroethane, 293.65 K | 0.0202
in 1,1,1-trichloroethane, 296.95 K | 0.0313
in 1,1,1-trichloroethane, 299.45 K | 0.043
in 1,1,1-trichloroethane, 302.35 K | 0.0571
in 1,1,1-trichloroethane, 304.35 K | 0.0718
in 1,1,1-trichloroethane, 305.75 K | 0.0958
in 1,1,1-trichloroethane, 308.95 K | 0.127
in 1,1,1-trichloroethane, 311.75 K | 0.161
in 1,1,1-trichloroethane, 318.15 K | 0.259
in cyclohexane, 295.95 K | 0.0024
in cyclohexane, 300.05 K | 0.0037
in cyclohexane, 304.75 K | 0.0102
in cyclohexane, 307.15 K | 0.0204
in cyclohexane, 308.95 K | 0.041
in cyclohexane, 311.05 K | 0.0766
in cyclohexane, 312.65 K | 0.108
in ethanol, 296.35 K | 0.0001
in ethanol, 302.05 K | 0.0002
in ethanol, 305.35 K | 0.0003
in ethanol, 311.65 K | 0.0007
in ethanol, 313.05 K | 0.0009
in ethanol, 322.45 K | 0.0131
in isobutanol, 295.75 K | 0.0001
in isobutanol, 300.35 K | 0.0004
in isobutanol, 304.45 K | 0.0018
in isobutanol, 304.55 K | 0.0016
in isobutanol, 308.45 K | 0.003
in isobutanol, 311.55 K | 0.0082
in isopropanol, 305.15 K | 0.0003
in isopropanol, 306.65 K | 0.0006
in isopropanol, 313.15 K | 0.0008
in isopropanol, 315.65 K | 0.0015
in isopropanol, 319.65 K | 0.0033
in isopropanol, 321.65 K | 0.0058
in isopropanol, 325.65 K | 0.0069
in isopropanol, 326.65 K | 0.0241
in n-butanol, 295.85 K | 0.0004
in n-butanol, 299.75 K | 0.0006
in n-butanol, 304.25 K | 0.001
in n-butanol, 307.25 K | 0.0018
in n-butanol, 309.25 K | 0.0036
in n-propanol, 296.55 K | 0.0002
in n-propanol, 299.15 K | 0.0003
in n-propanol, 302.85 K | 0.0007
in n-propanol, 303.15 K | 0.0008
in n-propanol, 306.05 K | 0.0016
in n-propanol, 308.85 K | 0.0033
in tetrachloroethylene, 297.25 K | 0.0002
in tetrachloroethylene, 298.45 K | 0.0003
in tetrachloroethylene, 301.95 K | 0.0005
in tetrachloroethylene, 303.25 K | 0.0008
in tetrachloroethylene, 309.75 K | 0.0028
in trichloroethylene, 296.25 K | 0.0089
in trichloroethylene, 301.35 K | 0.0177
in trichloroethylene, 306.45 K | 0.0406
in trichloroethylene, 310.85 K | 0.0804
in trichloroethylene, 311.25 K | 0.252

CCCCCCCCCCCCCCCCCC(=O)OCCO
Details | solubility (mole fraction)
in 1,1,1-trichloroethane, 287.65 K | 0.0097
in 1,1,1-trichloroethane, 290.45 K | 0.0147
in 1,1,1-trichloroethane, 293.65 K | 0.0227
in 1,1,1-trichloroethane, 295.75 K | 0.0339
in 1,1,1-trichloroethane, 298.55 K | 0.0504
in 1,1,1-trichloroethane, 300.95 K | 0.0723
in 1,1,1-trichloroethane, 304.25 K | 0.108
in 1,1,1-trichloroethane, 307.75 K | 0.164
in 1,1,1-trichloroethane, 311.65 K | 0.239
in 1,1,1-trichloroethane, 314.45 K | 0.348
in 1,1,2-trichlorotrifluoroethane, 290.45 K | 0.0013
in 1,1,2-trichlorotrifluoroethane, 295.55 K | 0.0029
in 1,1,2-trichlorotrifluoroethane, 303.45 K | 0.0077
in 1,1,2-trichlorotrifluoroethane, 303.65 K | 0.0087
in 1,1,2-trichlorotrifluoroethane, 306.05 K | 0.0124
in 1,1,2-trichlorotrifluoroethane, 308.05 K | 0.0192
in 1,1,2-trichlorotrifluoroethane, 309.85 K | 0.0307
in 1,1,2-trichlorotrifluoroethane, 311.45 K | 0.049
in 1,1,2-trichlorotrifluoroethane, 312.65 K | 0.0769
in 1,1,2-trichlorotrifluoroethane, 314.15 K | 0.128
in 1,1,2-trichlorotrifluoroethane, 316.75 K | 0.276
in cyclohexane, 282.05 K | 0.0007
in cyclohexane, 288.35 K | 0.0015
in cyclohexane, 294.65 K | 0.0033
in cyclohexane, 298.15 K | 0.0067
in cyclohexane, 299.15 K | 0.0088
in cyclohexane, 300.25 K | 0.0128
in cyclohexane, 300.85 K | 0.0135
in cyclohexane, 302.25 K | 0.0199
in cyclohexane, 303.85 K | 0.314
in cyclohexane, 305.45 K | 0.0499
in cyclohexane, 307.15 K | 0.0774
in cyclohexane, 309.35 K | 0.129
in cyclohexane, 312.46 K | 0.208
in cyclohexane, 315.56 K | 0.303
in ethyl acetate, 297.45 K | 0.0118
in ethyl acetate, 298.35 K | 0.016
in ethyl acetate, 299.15 K | 0.0204
in ethyl acetate, 299.75 K | 0.0248
in ethyl acetate, 300.95 K | 0.0332
in ethyl acetate, 302.15 K | 0.0433
in ethyl acetate, 305.05 K | 0.065
in ethyl acetate, 306.05 K | 0.0868
in ethyl acetate, 308.75 K | 0.125
in ethyl acetate, 312.75 K | 0.233
in n-butyl acetate, 294.45 K | 0.0094
in n-butyl acetate, 295.35 K | 0.0174
in n-butyl acetate, 297.45 K | 0.0304
in n-butyl acetate, 298.65 K | 0.0507
in n-butyl acetate, 302.65 K | 0.0761
in n-butyl acetate, 306.75 K | 0.129
in n-butyl acetate, 313.15 K | 0.267
in n-hexyl acetate, 293.95 K | 0.0267
in n-hexyl acetate, 299.35 K | 0.0423
in n-hexyl acetate, 302.35 K | 0.0633
in n-hexyl acetate, 305.95 K | 0.0919
in n-hexyl acetate, 308.15 K | 0.128
in n-hexyl acetate, 309.75 K | 0.158
in n-hexyl acetate, 311.65 K | 0.202
in n-hexyl acetate, 313.73 K | 0.256
in n-hexyl acetate, 317.15 K | 0.339
in n-hexyl acetate, 320.05 K | 0.464
in n-hexyl acetate, 332.85 K | 0.631
in n-pentyl acetate, 294.95 K | 0.0324
in n-pentyl acetate, 298.95 K | 0.0453
in n-pentyl acetate, 300.85 K | 0.168
in n-pentyl acetate, 301.75 K | 0.0655
in n-pentyl acetate, 303.75 K | 0.0897
in n-pentyl acetate, 305.75 K | 0.121
in n-pentyl acetate, 311.95 K | 0.232
in n-pentyl acetate, 314.95 K | 0.316
in n-pentyl acetate, 318.45 K | 0.447
in n-pentyl acetate, 322.85 K | 0.657
in n-propyl acetate, 297.75 K | 0.0357
in n-propyl acetate, 299.95 K | 0.0493
in n-propyl acetate, 302.15 K | 0.0655
in n-propyl acetate, 304.35 K | 0.0992
in n-propyl acetate, 306.45 K | 0.137
in n-propyl acetate, 308.75 K | 0.174
in n-propyl acetate, 311.85 K | 0.228
in n-propyl acetate, 314.95 K | 0.315
in n-propyl acetate, 317.85 K | 0.405
in n-propyl acetate, 322.15 K | 0.566
